The record followed here is ChEMBL document CHEMBL1201862, “PubChem BioAssay data set” (2004).

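A five-concentration, 48-hour dose response in 96-well plates underlies each endpoint, interpolated linearly between surrounding concentrations. GI50: concentration for 50% inhibition of growth.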 Active and inactive are the calls of the source. Rule as the data show it: active = GI50 up to about 1.1 µM and inactive = higher.

Test systems include CCRF-CEM; EKVX; HCC 2998; HCT-15; HL-60; HOP-92; Hs-578T; M14; MDA-MB-435; MDA-N; NCI-H522; OVCAR-4; OVCAR-5; OVCAR-8; PC-3; SF-295; SW-620; TK-10; UACC-257; UO-31.
Test in all cases: DTP human tumour cell line panel, 48 h

By GI50 is commonly meant the concentration at which growth is held to half of that of the control. `COc1oc(C(=O)NC2CCCCC2)c(-c2ccc(Cl)cc2)c1S(=O)(=O)c1ccccc1`: the GI50 in the assay with CCRF-CEM was 2.2 µM (inactive); in the assay with EKVX it was 9.98 µM (inactive); with HCC 2998 it was 19 µM (inactive); in the assay on HCT-15, 44.9 µM; with HL-60, 2.4 µM (inactive); with HOP-92, 1.5 µM (inactive). Moreover, the GI50 in the assay on Hs-578T was 16.2 µM (inactive); in the assay with M14, 26.9 µM (inactive); with MDA-MB-435, 9.86 µM (inactive); in the assay on MDA-N, 64 µM (inactive); in the assay on NCI-H522 it was 1.34 µM (inactive); with OVCAR-4, 1.7 µM (inactive). The GI50 with OVCAR-5 is 23.4 µM (inactive); in the assay on OVCAR-8, 6.4 µM (inactive); with PC-3, 10.7 µM (inactive); with SF-295, 23.4 µM (inactive); in the assay on SW-620 it was 38.2 µM (inactive); in the assay with TK-10 it was > 53.1 µM (inactive). The GI50 in the assay with UACC-257 is 11.8 µM (inactive); with UO-31, 1.82 µM (inactive).

For the compound `CCOC(=O)C1=C(OS(=O)(=O)C(F)(F)F)CCCC1`, the GI50 in the assay with CCRF-CEM is > 100 µM (inactive); in the assay with EKVX, > 100 µM (inactive); with HCC 2998, > 100 µM (inactive); in the assay on HCT-15, greater than 100 µM; with HL-60, > 100 µM (inactive); with HOP-92, > 100 µM (inactive). For the same compound, the GI50 in the assay on Hs-578T, in the assay on M14, with MDA-MB-435, with MDA-N, in the assay with NCI-H522 and in the assay with OVCAR-4 was > 100 µM (inactive) in each case. In addition, the GI50 with OVCAR-5, in the assay on OVCAR-8, in the assay with PC-3, in the assay with SF-295, in the assay on SW-620 and in the assay with TK-10 was > 100 µM (inactive) each time. Besides, the GI50 in the assay with UACC-257 and in the assay on UO-31 was > 100 µM (inactive) throughout.

As to `CC(=O)OC1COC(n2c(-c3ccc(Cl)cc3)cc(-c3ccccc3)c(C#N)c2=S)C(OC(C)=O)C1OC(C)=O` (stereo not given), the GI50 in the assay on CCRF-CEM was 31.8 µM (inactive); with EKVX, 58.5 µM (inactive); in the assay on HCC 2998, 31.6 µM (inactive); in the assay with HCT-15, 23.4 µM; with HL-60 it was 37.7 µM (inactive); in the assay with HOP-92, 12.9 µM (inactive). Moreover, the GI50 is 0.552 µM (active) with Hs-578T; 17.2 µM (inactive) with M14; 7.19 µM (inactive) with MDA-MB-435; 22.1 µM (inactive) in the assay on MDA-N; 40.5 µM (inactive) in the assay on NCI-H522; 2.92 µM (inactive) in the assay with OVCAR-4. The GI50 with OVCAR-5 was 32.7 µM (inactive); with OVCAR-8 it was 5.06 µM (inactive); with PC-3, 14.5 µM (inactive); with SF-295, 14.7 µM (inactive); in the assay on SW-620, 41.1 µM (inactive); in the assay on TK-10, 31.6 µM (inactive). The GI50 is 41.6 µM (inactive) in the assay with UACC-257 and 17.6 µM (inactive) in the assay with UO-31.

Take `O[C@@]1(C#Cc2ccc3c(c2)OCO3)CCC[C@H]1NCc1ccccc1`: the GI50 in the assay on CCRF-CEM was 33.8 µM (inactive); with EKVX it was 33.5 µM (inactive); in the assay on HCC 2998, 17.1 µM (inactive); in the assay with HCT-15 it was 19.1 µM; in the assay with HL-60, 18.4 µM (inactive); in the assay on HOP-92, 13.7 µM (inactive). Also, the GI50 in the assay with Hs-578T is 21.2 µM (inactive); in the assay on M14 it was 15.7 µM (inactive); in the assay on MDA-MB-435, 21 µM (inactive); in the assay with MDA-N it was 16.9 µM (inactive); in the assay on NCI-H522, 15.3 µM (inactive); in the assay on OVCAR-4 it was 38.6 µM (inactive). Moreover, the GI50 in the assay with OVCAR-5 was 34.8 µM (inactive); in the assay on OVCAR-8 it was 22.8 µM (inactive); in the assay on PC-3 it was 19.2 µM (inactive); in the assay on SF-295 it was 19.8 µM (inactive); with SW-620, 31.4 µM (inactive); with TK-10 it was 27.7 µM (inactive). Besides, the figures for the GI50 in the assay on UACC-257 and in the assay with UO-31 were 24.2 µM (inactive) and 18.6 µM (inactive), respectively.

With `O=C(NC1=NC2C=CC([N+](=O)[O-])=CC2S1)C(=O)Nn1c(S)nc2ccccc2c1=O` (stereo not given), the GI50 in the assay on CCRF-CEM was 45.9 µM (inactive); with EKVX, 33.7 µM (inactive); with HCC 2998, > 100 µM (inactive); in the assay with HCT-15, 21.2 µM; with HL-60, 56.4 µM (inactive); in the assay with HOP-92, 29.4 µM (inactive). The GI50 was 39.4 µM (inactive) with Hs-578T; > 100 µM (inactive) in the assay on M14; > 100 µM (inactive) in the assay with MDA-MB-435; > 100 µM (inactive) with MDA-N; 47.3 µM (inactive) in the assay on NCI-H522; 27.4 µM (inactive) in the assay with OVCAR-4. In addition, the GI50 with OVCAR-5 was > 100 µM (inactive); in the assay with OVCAR-8, 87.1 µM (inactive); in the assay on PC-3 it was 40.6 µM (inactive); in the assay with SF-295, 88.9 µM (inactive); in the assay with SW-620, > 100 µM (inactive); in the assay on TK-10, 63 µM (inactive). For the same compound, the GI50 in the assay on UACC-257 was > 100 µM (inactive); in the assay on UO-31 it was 27.7 µM (inactive).

For `CSc1ccccc1NC1=NCCO1`, the GI50 with CCRF-CEM was > 100 µM (inactive); in the assay on EKVX, > 100 µM (inactive); in the assay on HCC 2998, > 100 µM (inactive); with HCT-15, greater than 100 µM; in the assay on HL-60, > 100 µM (inactive); in the assay on HOP-92, > 100 µM (inactive). Also, the GI50 with Hs-578T, in the assay with M14, with MDA-MB-435, in the assay on MDA-N, in the assay on NCI-H522 and with OVCAR-4 was > 100 µM (inactive) throughout. For the same compound, the GI50 in the assay with OVCAR-5, with OVCAR-8, in the assay on PC-3, in the assay with SF-295, in the assay on SW-620 and in the assay with TK-10 was > 100 µM (inactive) throughout. In addition, the GI50 in the assay on UACC-257 and in the assay on UO-31 was > 100 µM (inactive) each time.

As to `C/C=C(/C)C(=O)O[C@H]1CCN2CC=C(COC(=O)[C@@](O)([C@H](C)OC)C(C)(C)O)[C@H]12`, the GI50 was > 100 µM (inactive) in the assay on CCRF-CEM; > 100 µM (inactive) with EKVX; > 100 µM (inactive) with HCC 2998; greater than 100 µM in the assay on HCT-15; > 100 µM (inactive) in the assay on HL-60; > 100 µM (inactive) in the assay on HOP-92. The GI50 in the assay on Hs-578T, in the assay on M14, in the assay on MDA-MB-435, in the assay with MDA-N, in the assay with NCI-H522 and with OVCAR-4 was > 100 µM (inactive) each time. In addition, the GI50 in the assay on OVCAR-5, in the assay on OVCAR-8, in the assay on PC-3, in the assay on SF-295, with SW-620 and in the assay on TK-10 was > 100 µM (inactive) throughout. The GI50 in the assay on UACC-257 and with UO-31 was > 100 µM (inactive) throughout.

In the case of `COC(=O)C(Cc1ccc2c(c1)CCCC2)Cc1cc2c(cc1C(O)OC)CCC2` (stereo not given), the GI50 in the assay with CCRF-CEM is 58.9 µM (inactive); with EKVX it was 39.4 µM (inactive); with HCC 2998, 57.9 µM (inactive); in the assay on HCT-15, 33.7 µM; in the assay on HL-60 it was 11.8 µM (inactive); with HOP-92, 18.5 µM (inactive). Besides, the GI50 in the assay with Hs-578T is 57.9 µM (inactive); in the assay with M14, 93.3 µM (inactive); with MDA-MB-435, 38.2 µM (inactive); in the assay on MDA-N it was 56.8 µM (inactive); with NCI-H522, 50.1 µM (inactive); in the assay on OVCAR-4, 80 µM (inactive). Moreover, the GI50 in the assay with OVCAR-5 was 80.9 µM (inactive); in the assay on OVCAR-8, > 100 µM (inactive); with PC-3, 19.5 µM (inactive); in the assay with SF-295 it was 61.5 µM (inactive); in the assay on SW-620 it was 67.1 µM (inactive); in the assay on TK-10, 62.2 µM (inactive). Further, the GI50 is 14.7 µM (inactive) in the assay on UACC-257 and 93.8 µM (inactive) in the assay with UO-31.

As to `COC(=O)[C@H](Cc1ccccc1)NC(=O)c1ccc(CNC(=O)/C=C/c2csc(-c3ccccc3)n2)cc1`, the GI50 is 3.89 µM (inactive) with CCRF-CEM; 15.2 µM (inactive) with EKVX; 3.91 µM (inactive) in the assay on HCC 2998; 7.35 µM with HCT-15; 0.275 µM (active) in the assay on HL-60; 3.88 µM (inactive) with HOP-92. Moreover, the GI50 in the assay on Hs-578T was 3.21 µM (inactive); in the assay on M14, 1.84 µM (inactive); in the assay with MDA-MB-435 it was 2.83 µM (inactive); with MDA-N it was 4.45 µM (inactive); with NCI-H522, 3.24 µM (inactive); with OVCAR-4 it was 24 µM (inactive). Also, the GI50 with OVCAR-5 is 38.5 µM (inactive); in the assay on OVCAR-8 it was 11.1 µM (inactive); in the assay on PC-3, 6.87 µM (inactive); in the assay on SF-295, 7.28 µM (inactive); in the assay on SW-620, 7.33 µM (inactive); in the assay on TK-10 it was 19.3 µM (inactive). The GI50 in the assay with UACC-257 was 1.93 µM (inactive); with UO-31, 8.2 µM (inactive).

In the case of `C=C(C)[C@@H]1CC[C@]2(C(=O)OC3OC(COC4OC(CO)C(OC5OC(C)C(O)C(O)C5O)C(O)C4O)C(O)C(O)C3O)CC[C@]3(C)[C@H](CC[C@@H]4[C@@]5(C)CC[C@H](O)[C@@](C)(CO)[C@@H]5CC[C@]43C)[C@@H]12` (stereo not given in full), the GI50 was 0.043 µM (active) in the assay on CCRF-CEM; 2.2 µM (inactive) in the assay on EKVX; 2.56 µM (inactive) in the assay with HCC 2998; 2.39 µM with HCT-15; 0.0986 µM (active) in the assay with HL-60; 3.1 µM (inactive) with HOP-92. Also, the GI50 with Hs-578T is 3.64 µM (inactive); in the assay on M14, 3.48 µM (inactive); with MDA-MB-435 it was 3.51 µM (inactive); in the assay with MDA-N, 4.58 µM (inactive); with NCI-H522 it was 2.66 µM (inactive); in the assay with OVCAR-4, 3.44 µM (inactive). Besides, the GI50 in the assay on OVCAR-5 is 6.81 µM (inactive); with OVCAR-8, 3.97 µM (inactive); in the assay with PC-3 it was 2.6 µM (inactive); with SF-295, 1.27 µM (inactive); in the assay on SW-620, 2.16 µM (inactive); in the assay on TK-10, 3.49 µM (inactive). Moreover, the GI50 with UACC-257 was 4.63 µM (inactive); in the assay with UO-31, 3.93 µM (inactive).
